Results taken from patent publication US20200138031A1, “MIXTURES OF SABADILLA ALKALOIDS AND N-OCTYL BICYCLOHEPTENE DICARBOXIMIDE AND USES THEREOF” (priority 2016, published 2020).

Legend:
Type in all cases: in vivo
[1] = system: house fly (Musca domestica); assay: direct spray bioassay against house fly; details: for % Mortality: Hour 4; for mortality at 0.025 % strength / mortality at 0.1 % strength / mortality at 0.25 % strength / mortality at 1 % strength: Musca domestica
Method: (§1) To determine if the mixtures provided unexpected results, the observed combined efficacy (“OCE”) was divided by the expected combined efficacy (“ECE”) to give an OCE/ECE ratio wherein the expected ECE is calculated by the Abbott method: […]
(§2) wherein ECE is the expected combined efficacy and in which A and B are the efficacy provided by the single active ingredients. If the ratio between the OCE of the mixture and the ECE of the mixture is greater than 1, then greater than expected interactions are present in the mixture. (Gisi, The American Phytopathological Society, 86:11, 1273-1279, 1996).
(§3) A direct spray bioassay for a mixture of sabadilla N-octyl and MGK264 against house fly (Musca domestica) was conducted on Mar. 6-13, 2019. A water-based formulation containing Sabadilla alone, MGK264 alone, or these combinations were prepared using test products and distilled water. Ten adults (females) of the house fly were put into 650 mL clean cup (100 mm diameter×70 mm height) laid a filter paper (106 mm diameter) at the bottom, and the cup was covered with 1 mm mesh nylon net. The cup was set on the bottom of CSMA chamber (460 mm×460 mm×700 mm height), and 0.5 mL of water (control) or water-based formulation of test products was sprayed from the distance of 30 cm toward the cup at the air pressure of 0.039 MPa (0.4 kg/cm2). […] The test was repeated 4 times and calculated mortality (%) at each observation point.

[2] = system: Yellow fever mosquito (Aedes aegypti); assay: whole plant or invertebrate; details: for % Mortality: Hour 4; for mortality at 0.05 % strength / mortality at 0.5 % strength / mortality at 1 % strength / mortality: Aedes aegypti; for mortality at 1 % strength: 1.0 % w/w
Method: as §3, with “sabadilla and” for “sabadilla”, “bycloheptene dicarboximide (MGK264)” for “and MGK264”, “Yellow fever mosquito (Aedes aegypti)” for “house fly (Musca domestica)”, “Sep. 20-27,” for “Mar. 6-13,”, “mosquito” for “house fly”
as §1, §2

[3] = system: German cockroach (Blattella germanica); assay: direct spray bioassay against German cockroach; details: for % Mortality: Hour 4; for mortality at 0.05 % strength / mortality at 0.5 % strength / mortality at 5 % strength: Blattella germanica
Method: as §1, §2
(§4) A direct spray bioassay for a mixture of sabadilla and MGK264 against German cockroach (Blattella germanica) was conducted on Feb. 13-20, 2019. A water-based formulation containing Sabadilla alone, MGK264 alone, or these combinations were prepared using test products and distilled water. Ten adults (1:1 sex ratio) of the cockroach were put into 200 mL clean cup (80 mm diameter×45 mm height) laid a filter paper (82 mm diameter) at the bottom. The cup was set on the bottom of CSMA chamber (460 mm×460 mm×700 mm height), and 1.5 mL of water (control) or water-based formulation of test products was sprayed from the distance of 60 cm toward the cup at the air pressure of 0.041 MPa (0.42 kg/cm2). […] The test was repeated 4 times and calculated mortality (%) at each observation point.

[4] = system: bed bug (Cimex lectularius); assay: direct spray bioassay against bed bug; details: for % Mortality: Hour 4; for mortality at 0.05 % strength / mortality at 0.5 % strength / mortality at 5 % strength: Cimex lectularius
Method: as §1, §2
as §4, with “bed bug (Cimex lectularius)” for “against German cockroach (Blattella germanica)”, “February 27 to Mar. 6,” for “Feb. 13-20,”, “bed bug (Cimex lectularius)” for “cockroach”, “0.5” for “1.5”

CCCCC(CC)CN1C(=O)C2C3C=CC(C3)C2C1=O (centres unmarked) [MGK264, N-octyl bicycloheptene dicarboximide]
% Mortality ([1]; 0.025 % w/w): 0.0% | % Mortality ([1]; 0.1 % w/w): 0.0% | % Mortality ([1]; 0.25 % w/w): 0.0% | % Mortality ([1]; 1.0 % w/w): 0.0% | mortality at 0.025 % strength ([1]; 24 h, 0.025 % w/w, Day 1): 0% | mortality at 0.1 % strength ([1]; 24 h, 0.1 % w/w, Day 1): 0% | mortality at 0.25 % strength ([1]; 24 h, 0.25 % w/w, Day 1): 0% | mortality at 1 % strength ([1]; 24 h, 1.0 % w/w, Day 1): 2.5% | mortality at 0.025 % strength ([1]; 48 h, 0.025 % w/w, Day 2): 7.3% | mortality at 0.1 % strength ([1]; 48 h, 0.1 % w/w, Day 2): 10% | mortality at 0.25 % strength ([1]; 48 h, 0.25 % w/w, Day 2): 10% | mortality at 1 % strength ([1]; 48 h, 1.0 % w/w, Day 2): 12.5% | mortality at 0.025 % strength ([1]; 120 h, 0.025 % w/w, Day 5): 34.1% | mortality at 0.1 % strength ([1]; 120 h, 0.1 % w/w, Day 5): 37.5% | mortality at 0.25 % strength ([1]; 120 h, 0.25 % w/w, Day 5): 42.5% | mortality at 1 % strength ([1]; 120 h, 1.0 % w/w, Day 5): 72.5% | mortality at 0.025 % strength ([1]; 144 h, 0.025 % w/w, Day 6): 53.7% | mortality at 0.1 % strength ([1]; 144 h, 0.1 % w/w, Day 6): 37.5% | mortality at 0.25 % strength ([1]; 144 h, 0.25 % w/w, Day 6): 50% | mortality at 1 % strength ([1]; 144 h, 1.0 % w/w, Day 6): 80% | mortality at 0.025 % strength ([1]; 168 h, 0.025 % w/w, Day 7): 68.3% | mortality at 0.1 % strength ([1]; 168 h, 0.1 % w/w, Day 7): 55% | mortality at 0.25 % strength ([1]; 168 h, 0.25 % w/w, Day 7): 60% | mortality at 1 % strength ([1]; 168 h, 1.0 % w/w, Day 7): 87.5% | mortality at 0.025 % strength ([1]; 0.025 % w/w, Hour 1): 0% | mortality at 0.1 % strength ([1]; 0.1 % w/w, Hour 1): 0% | mortality at 0.25 % strength ([1]; 0.25 % w/w, Hour 1): 0% | mortality at 1 % strength ([1]; 1.0 % w/w, Hour 1): 0% | % Mortality ([2]; 0.05 % w/w): 0.0% | % Mortality ([2]; 0.1 % w/w): 0.0% | % Mortality ([2]; 0.5 % w/w): 0.0% | mortality at 0.05 % strength ([2]; 24 h, 0.05 % w/w, Day 1): 0% | mortality at 0.5 % strength ([2]; 24 h, 0.5 % w/w, Day 1): 0% | mortality at 1 % strength ([2]; 24 h, Day 1): 10% | mortality ([2]; 24 h, Day 1): 0% | mortality at 0.5 % strength ([2]; 48 h, 0.5 % w/w, Day 2): 0% | mortality at 1 % strength ([2]; 48 h, Day 2): 12.5% | mortality at 0.05 % strength ([2]; 120 h, 0.05 % w/w, Day 5): 0% | mortality at 0.5 % strength ([2]; 120 h, 0.5 % w/w, Day 5): 0% | mortality at 1 % strength ([2]; 120 h, Day 5): 12.5% | mortality at 0.5 % strength ([2]; 144 h, 0.5 % w/w, Day 6): 0% | mortality at 1 % strength ([2]; 144 h, Day 6): 12.5% | mortality at 0.05 % strength ([2]; 168 h, 0.05 % w/w, Day 7): 0% | mortality at 0.5 % strength ([2]; 168 h, 0.5 % w/w, Day 7): 0% | mortality at 1 % strength ([2]; 168 h, Day 7): 12.5% | mortality ([2]; 168 h, Day 7): 2.5% | mortality at 0.05 % strength ([2]; 0.05 % w/w, Hour 1): 0% | mortality at 0.5 % strength ([2]; 0.5 % w/w, Hour 1): 0% | mortality at 1 % strength ([2]; Hour 1): 7.5% | mortality ([2]; Hour 1): 0% | % Mortality ([3]; 0.05 % w/w): 0.0% | % Mortality ([3]; 0.5 % w/w): 0.0% | % Mortality ([3]; 5.0 % w/w): 0.0% | mortality at 0.05 % strength ([3]; 24 h, 0.05 % w/w, Day 1): 0% | mortality at 0.5 % strength ([3]; 24 h, 0.5 % w/w, Day 1): 0% | mortality at 5 % strength ([3]; 24 h, 5.0 % w/w, Day 1): 0% | mortality at 0.05 % strength ([3]; 48 h, 0.05 % w/w, Day 2): 0% | mortality at 0.5 % strength ([3]; 48 h, 0.5 % w/w, Day 2): 0% | mortality at 5 % strength ([3]; 48 h, 5.0 % w/w, Day 2): 0% | mortality at 0.05 % strength ([3]; 120 h, 0.05 % w/w, Day 5): 2.6% | mortality at 0.5 % strength ([3]; 120 h, 0.5 % w/w, Day 5): 0% | mortality at 5 % strength ([3]; 120 h, 5.0 % w/w, Day 5): 0% | mortality at 0.05 % strength ([3]; 144 h, 0.05 % w/w, Day 6): 2.6% | mortality at 0.5 % strength ([3]; 144 h, 0.5 % w/w, Day 6): 0% | mortality at 5 % strength ([3]; 144 h, 5.0 % w/w, Day 6): 0% | mortality at 0.05 % strength ([3]; 168 h, 0.05 % w/w, Day 7): 2.6% | mortality at 0.5 % strength ([3]; 168 h, 0.5 % w/w, Day 7): 0% | mortality at 5 % strength ([3]; 168 h, 5.0 % w/w, Day 7): 0% | mortality at 0.05 % strength ([3]; 0.05 % w/w, Hour 1): 0% | mortality at 0.5 % strength ([3]; 0.5 % w/w, Hour 1): 0% | mortality at 5 % strength ([3]; 5.0 % w/w, Hour 1): 0% | % Mortality ([4]; 0.05 % w/w): 0.0% | % Mortality ([4]; 0.5 % w/w): 0.0% | % Mortality ([4]; 5.0 % w/w): 0.0% | mortality at 0.05 % strength ([4]; 24 h, 0.05 % w/w, Day 1): 0% | mortality at 0.5 % strength ([4]; 24 h, 0.5 % w/w, Day 1): 0% | mortality at 5 % strength ([4]; 24 h, 5.0 % w/w, Day 1): 0% | mortality at 0.05 % strength ([4]; 48 h, 0.05 % w/w, Day 2): 0% | mortality at 0.5 % strength ([4]; 48 h, 0.5 % w/w, Day 2): 0% | mortality at 5 % strength ([4]; 48 h, 5.0 % w/w, Day 2): 0% | mortality at 0.05 % strength ([4]; 120 h, 0.05 % w/w, Day 5): 0% | mortality at 0.5 % strength ([4]; 120 h, 0.5 % w/w, Day 5): 0% | mortality at 5 % strength ([4]; 120 h, 5.0 % w/w, Day 5): 0% | mortality at 0.05 % strength ([4]; 144 h, 0.05 % w/w, Day 6): 0% | mortality at 0.5 % strength ([4]; 144 h, 0.5 % w/w, Day 6): 0% | mortality at 5 % strength ([4]; 144 h, 5.0 % w/w, Day 6): 0% | mortality at 0.05 % strength ([4]; 168 h, 0.05 % w/w, Day 7): 0% | mortality at 0.5 % strength ([4]; 168 h, 0.5 % w/w, Day 7): 0% | mortality at 5 % strength ([4]; 168 h, 5.0 % w/w, Day 7): 0% | mortality at 0.05 % strength ([4]; 0.05 % w/w, Hour 1): 0% | mortality at 0.5 % strength ([4]; 0.5 % w/w, Hour 1): 0% | mortality at 5 % strength ([4]; 5.0 % w/w, Hour 1): 0%
